# From patent US6251898A, “Medical use of fluorenone derivatives for treating and preventing brain and spinal injury” (Questcor Pharmaceuticals, Inc., priority 1999, dated 2001)
# Assays:
# [1] = system: UC11-MG human astrocytoma cells; assay: D-aspartate (excitotoxin) release by hypo-osmotically stressed astrocytoma cells; type: cell-based
# Source text: The in vitro tests described in this example used UC11-MG human astrocytoma cells, obtained from the University of Cincinnati, and described in Liwnicz et al 1986 and Lomneth et al 1989. Cell culture reagents (including RPMI 1640, fetal bovine serum, trypsin, and gentamicin) were obtained from Gibco (Gaithersburg, Md.). Radiolabelled D-[2,3-^3 H]aspartate was obtained from Amersham Life Sciences (Buckinghamshire, England). ScintiVerse II scintillation fluid was obtained from Fisher Scientific (Pittsburgh, Pa.). All other chemicals were obtained from Sigma Chemical Co. (St. Louis, Mo.). Osmolarities of solutions were measured using the Advance DigiMatic Osmometer Model 3D II (Advanced Instruments Inc., Mass.).
# The UC11-MG astrocytoma cells were cultured in 75 ml vented flasks at 37° C. inside a humidified incubator in 5% CO2 /95% air. The cells were grown in RPMI Medium 1640 supplemented with 10% fetal bovine serum and […] gentamicin. At approximately 90% confluence, the cells were detached and suspended using a 0.0625% trypsin solution in Buffer A (137 mM NaCl, 5.37 mM KCl, 5.55 mM glucose, 4.17 mM NaHCO3, and 0.54 mM EDTA disodium salt, pH 7.4). The cells were then plated onto 6-well tissue culture plates at a seeding ratio of 4 plates per flask and 4 ml of cell-media suspension per well. The plated cells were used in experiments the next day at approximately 90% confluence. Plates that appeared to be more than 95% confluent were not used, because higher levels of confluence led to uncontrollable differentials in exposure of the cells to culture media and labelled aspartate. All tests were performed in triplicate. All media collections were done at 5 minute intervals, using pipettes, and were followed by promptly loading fresh buffer into each well before any drying occurred. All buffer samples collected in this manner were loaded into scintillation vials, mixed with 5 ml scintillation fluid, and counted for 1 minute in a scintillation counter (Beckman LS8000, Fullerton, Calif.).
# Prior to D-aspartate exposure, the wells were washed three times under sterile conditions with 3 ml of 37° C. Buffer B (122 mM NaCl, 3.3 mM KCl, 1.2 mM CaCl2, 0.4 mM MgSO4, 1.2 mM KH2 PO4, 25 mM Hepes, 10 mM glucose, pH 7.4).
# The cells were then loaded with 0.5 μCi/ml of D-aspartate, and incubated at 37° C. for 30 min. Cells were then washed four times with Buffer B, and the last washing fluid was left on the cells. The plates were then placed on an orbital shaker and maintained at 37° C.
# Baseline aspartate release levels (prior to drug treatment) were determined by incubating the cells with normal Buffer B (285 mOsm) for 15 minutes, while buffer was collected every 5 minutes.
# After the buffer was collected from a well at the 15 minute mark, the next set of normal Buffer B added to that well contained a test compound at a known concentration; each compound was tested over a range of concentrations. Cells were then incubated for two 5 minute intervals with solutions of test compounds in normal Buffer B. In some tests which used buffers containing relatively high concentrations of a test drug with limited solubility in water, DMSO was added to the mixture to increase the solubility of the compound in water.
# Beginning at the 25-minute mark, the cells were stimulated to begin releasing aspartate by loading a well with hypo-osmotic buffer, prepared by diluting Buffer B with an equal volume of distilled and deionized H2 O, resulting in an osmolarity of about 145 mOsm. This hypo-osmoticsolution caused the cells to begin taking in excess water, to try to reestablish the normal osmotic gradients that exist across the cell membranes. The water-induced swelling and stress then began to induce release of aspartate by the cells, and the amount of aspartate released by the swollen astrocyte cells was measured by removing the buffer every 5 minutes and testing it in a scintillation counter.
# [2] = system: neuronal damage caused by global brain ischemia; assay: Global cerebral ischemia, bilateral carotid occlusion model in gerbils; type: in vivo, Mongolian gerbils
# Source text: The surgical and drug treatment procedures used in the animal model of global brain ischemia are described in Example 24. "Global" ischemia occurs when the entire brain is deprived of oxygenated blood, as occurs during crises such as cardiac arrest, suffocation, or carbon monoxide poisoning. It should be noted that the drug treatment was provided only after the ischemic insult had been fully completed (i.e., after the clamps which were used to temporarily close the carotid arteries had been released again). "Post-trauma" treatment offers a much more realistic, and much more difficult and stringent, challenge than other assays in which test animals are pre-treated with a test drug before an ischemic insult begins.
# In one set of in vivo tests, the bilateral carotid occlusion model in gerbils was used to evaluate the abilities of a selected compound, GERI-E7, to protect against neuronal damage caused by global brain ischemia. These tests were performed in the laboratory of Dr. Claude Wasterlain, at the Sepulveda Veterans Administration Medical Center, in Los Angeles, Calif.
# Adult male Mongolian gerbils were subjected to reversible bilateral carotid occlusion for 5 minutes, according to standard methods (e.g., Wasterlain et al 1992 and 1996). Each gerbil in a test group was then treated with a test compound at either 2 or 20 mg/kg, dissolved in injectable saline and administered intravenously (IV). Control animals were treated with saline. All treatment and control groups had 10 animals per group. Body temperature was maintained throughout the procedure by a heat lamp and rectal probe.
# The gerbils were sacrificed 72 hours after surgery, and their brains were perfusion-fixed with paraformaldehyde. Serial sections of the brain were cut and stained with hematoxylin and eosin, and quantitative cell counts of live and dead neurons were made, using light and fluorescence microscopy, in two different parts of the brain that are highly sensitive to ischemic damage: (i) the subiculum, a zone of transition between the parahippocampus and the hippocampus; and (ii) the CA1 portion of the hippocampus. Statistical analysis was performed on all damage scores (non-paired student t test). All evaluations were made using double-blinded methods.
structure (smiles),measurement,setting,value
"CCC[C@]12CCC(=O)C=C1c1c(cc(OCC3=NCCO3)c(Cl)c1Cl)C2 [GERI-E7, R(+)-2-[[(5,6-dichloro-2,3,9,9a-tetrahydro-3-oxo-9a-propyl-1H-fluoren-7-yl)-oxy]methyl]oxazoline]",IC50,"[1]; Homo sapiens, UC11MG, hypo-osmotic stress, about 145 mOsm, AUC-based, read-out: IC50 value (suppression of excitotoxin / D-aspartate release by stressed astrocyte cells)",8.5 µM
same,Comparative potency,"[1]; relative to L-644,711 (100% = benchmark)","3,100%"
same,Reduction of dead or dying neurons in the hippocampus,"[2]; CA1 region of hippocampus, IV after 5 min occlusion, 72 h, 2 or 20 mg/kg, on average",about 40%
same,Reduction of brain damage caused by global brain ischemia,[2]; animal model used,very effective in reducing brain damage
same,Reduction in neuronal damage levels in other brain regions,[2]; mainly visual semi-quantitative methods,significant reduction in neuronal damage levels in most of the other areas
same,Reduction in neuronal damage in both brain regions evaluated,"[2]; subiculum and CA1, versus saline control, student t test",substantial and statistically significant reduction in neuronal damage
same,Reduction of dead or dying neurons in the subiculum,"[2]; subiculum, IV after 5 min occlusion, 72 h, 2 or 20 mg/kg, on average",about 30%
